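A five-concentration, 48-hour dose response in 96-well plates underlies each endpoint, interpolated linearly between surrounding concentrations. Abbreviation: GI50, concentration required for 50% inhibition of growth.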 Active and inactive are the calls of the source. Rule as the data show it: active = GI50 up to about 1.1 µM and inactive = higher.
What was measured:
Experiment in all cases: NCI-60 cell line screen, 48 h
786-0 = system: 786-0
A498 = system: A498
A549 = system: A549
ACHN = system: ACHN
BT-549 = system: BT-549
CAKI-1 = system: CAKI-1
CCRF-CEM = system: CCRF-CEM
COLO 205 = system: COLO 205
DU-145 = system: DU-145
EKVX = system: EKVX
HCC 2998 = system: HCC 2998
HCT-116 = system: HCT-116
HCT-15 = system: HCT-15
HOP-62 = system: HOP-62
HOP-92 = system: HOP-92
HT-29 = system: HT-29
Hs-578T = system: Hs-578T
IGROV-1 = system: IGROV-1
K562 = system: K562
KM12 = system: KM12
LOX IMVI = system: LOX IMVI
M14 = system: M14
MCF7 = system: MCF7
MDA-MB-231 = system: MDA-MB-231
MDA-MB-435 = system: MDA-MB-435
MDA-N = system: MDA-N
MOLT-4 = system: MOLT-4
NCI-H23 = system: NCI-H23
NCI-H460 = system: NCI-H460
NCI-H522 = system: NCI-H522
NCI/ADR-RES = system: NCI/ADR-RES
OVCAR-3 = system: OVCAR-3
OVCAR-4 = system: OVCAR-4
OVCAR-5 = system: OVCAR-5
OVCAR-8 = system: OVCAR-8
PC-3 = system: PC-3
RPMI-8226 = system: RPMI-8226
RXF 393 = system: RXF 393
SF-268 = system: SF-268
SF-295 = system: SF-295
SK-MEL-28 = system: SK-MEL-28
SK-MEL-2 = system: SK-MEL-2
SK-MEL-5 = system: SK-MEL-5
SK-OV-3 = system: SK-OV-3
SN12C = system: SN12C
SNB-19 = system: SNB-19
SNB-75 = system: SNB-75
SR = system: SR
SW-620 = system: SW-620
T47D = system: T47D
TK-10 = system: TK-10
U-251 = system: U-251
UACC-257 = system: UACC-257
UACC-62 = system: UACC-62
UO-31 = system: UO-31
HL-60 = system: HL-60
Malme-3M = system: Malme-3M
NCI-H226 = system: NCI-H226
SF-539 = system: SF-539

## COc1ccc2c3c1OC1c4[nH]c5ccccc5c4CC4(O)C(C2)N(C)CCC314 (stereo unspecified)
786-0
  GI50: 18.7 µM (inactive)
A498
  GI50: 15.3 µM (inactive)
A549
  GI50: 59.2 µM (inactive)
ACHN
  GI50: 20.6 µM (inactive)
BT-549
  GI50: 30.8 µM (inactive)
CAKI-1
  GI50: 35.3 µM (inactive)
CCRF-CEM
  GI50: 24.2 µM (inactive)
COLO 205
  GI50: 18.4 µM (inactive)
DU-145
  GI50: 57.9 µM (inactive)
EKVX
  GI50: 51.9 µM (inactive)
HCC 2998
  GI50: 16.4 µM (inactive)
HCT-116
  GI50: 32.3 µM (inactive)
HCT-15
  GI50: 46.6 µM
HOP-62
  GI50: 40.3 µM (inactive)
HOP-92
  GI50: 14.3 µM (inactive)
HT-29
  GI50: 22 µM (inactive)
Hs-578T
  GI50: 21.3 µM (inactive)
IGROV-1
  GI50: 64.1 µM (inactive)
K562
  GI50: 15.3 µM (inactive)
KM12
  GI50: 30.3 µM (inactive)
LOX IMVI
  GI50: 20.1 µM (inactive)
M14
  GI50: 17.1 µM (inactive)
MCF7
  GI50: 21.8 µM (inactive)
MDA-MB-231
  GI50: 25.5 µM (inactive)
MDA-MB-435
  GI50: 18.1 µM (inactive)
MDA-N
  GI50: 17.3 µM (inactive)
MOLT-4
  GI50: 16.7 µM (inactive)
NCI-H23
  GI50: > 100 µM (inactive)
NCI-H460
  GI50: 22 µM (inactive)
NCI-H522
  GI50: 25.1 µM (inactive)
NCI/ADR-RES
  GI50: 63.4 µM (inactive)
OVCAR-3
  GI50: 42.3 µM (inactive)
OVCAR-4
  GI50: 44.3 µM (inactive)
OVCAR-5
  GI50: 71.6 µM (inactive)
OVCAR-8
  GI50: 66.4 µM (inactive)
PC-3
  GI50: 37.2 µM (inactive)
RPMI-8226
  GI50: 19.3 µM (inactive)
RXF 393
  GI50: 20 µM (inactive)
SF-268
  GI50: 36.6 µM (inactive)
SF-295
  GI50: 82.4 µM (inactive)
SK-MEL-28
  GI50: 17.4 µM (inactive)
SK-MEL-2
  GI50: 18.4 µM (inactive)
SK-MEL-5
  GI50: 15.2 µM (inactive)
SK-OV-3
  GI50: > 100 µM (inactive)
SN12C
  GI50: 56.6 µM (inactive)
SNB-19
  GI50: 32.4 µM (inactive)
SNB-75
  GI50: 29.3 µM (inactive)
SR
  GI50: 15.2 µM (inactive)
SW-620
  GI50: 39.1 µM (inactive)
T47D
  GI50: 20.8 µM (inactive)
TK-10
  GI50: 22.9 µM (inactive)
U-251
  GI50: 21 µM (inactive)
UACC-257
  GI50: 17.3 µM (inactive)
UACC-62
  GI50: 20.9 µM (inactive)
UO-31
  GI50: 13.6 µM (inactive)

## Nc1nc(S)c2c(N)n[nH]c2c1C(=O)Nc1ccc(Cl)cc1
786-0
  GI50: 45.9 µM (inactive)
A498
  GI50: > 100 µM (inactive)
A549
  GI50: > 100 µM (inactive)
BT-549
  GI50: > 100 µM (inactive)
CAKI-1
  GI50: 60.3 µM (inactive)
COLO 205
  GI50: > 100 µM (inactive)
DU-145
  GI50: 47 µM (inactive)
EKVX
  GI50: > 100 µM (inactive)
HCC 2998
  GI50: > 100 µM (inactive)
HCT-116
  GI50: > 100 µM (inactive)
HCT-15
  GI50: 74.8 µM
HL-60
  GI50: 21.2 µM (inactive)
HOP-92
  GI50: > 100 µM (inactive)
HT-29
  GI50: > 100 µM (inactive)
Hs-578T
  GI50: > 100 µM (inactive)
IGROV-1
  GI50: > 100 µM (inactive)
K562
  GI50: 91.6 µM (inactive)
KM12
  GI50: 21.4 µM (inactive)
LOX IMVI
  GI50: 5.41 µM (inactive)
M14
  GI50: 45.4 µM (inactive)
MCF7
  GI50: > 100 µM (inactive)
MDA-MB-231
  GI50: > 100 µM (inactive)
MDA-MB-435
  GI50: 84.5 µM (inactive)
MDA-N
  GI50: 89.7 µM (inactive)
MOLT-4
  GI50: > 100 µM (inactive)
Malme-3M
  GI50: > 100 µM (inactive)
NCI-H226
  GI50: > 100 µM (inactive)
NCI-H460
  GI50: 54.1 µM (inactive)
NCI-H522
  GI50: 96.4 µM (inactive)
NCI/ADR-RES
  GI50: > 100 µM (inactive)
OVCAR-3
  GI50: > 100 µM (inactive)
OVCAR-4
  GI50: 64.4 µM (inactive)
OVCAR-5
  GI50: > 100 µM (inactive)
OVCAR-8
  GI50: 32.1 µM (inactive)
PC-3
  GI50: > 100 µM (inactive)
RPMI-8226
  GI50: > 100 µM (inactive)
RXF 393
  GI50: > 100 µM (inactive)
SF-268
  GI50: > 100 µM (inactive)
SF-539
  GI50: > 100 µM (inactive)
SK-MEL-28
  GI50: > 100 µM (inactive)
SK-MEL-2
  GI50: > 100 µM (inactive)
SK-MEL-5
  GI50: > 100 µM (inactive)
SK-OV-3
  GI50: > 100 µM (inactive)
SN12C
  GI50: > 100 µM (inactive)
SNB-19
  GI50: > 100 µM (inactive)
SNB-75
  GI50: > 100 µM (inactive)
SR
  GI50: 24.3 µM (inactive)
SW-620
  GI50: 29.6 µM (inactive)
T47D
  GI50: 44.6 µM (inactive)
TK-10
  GI50: > 100 µM (inactive)
U-251
  GI50: > 100 µM (inactive)
UACC-257
  GI50: 77.1 µM (inactive)
UACC-62
  GI50: 18.4 µM (inactive)
UO-31
  GI50: 74 µM (inactive)

## N=C1CCCC1C(=S)SCCC(N)=O (stereo unspecified)
786-0
  GI50: > 100 µM (inactive)
A498
  GI50: > 100 µM (inactive)
A549
  GI50: > 100 µM (inactive)
ACHN
  GI50: > 100 µM (inactive)
BT-549
  GI50: > 100 µM (inactive)
CAKI-1
  GI50: > 100 µM (inactive)
CCRF-CEM
  GI50: > 100 µM (inactive)
COLO 205
  GI50: > 100 µM (inactive)
DU-145
  GI50: > 100 µM (inactive)
EKVX
  GI50: > 100 µM (inactive)
HCC 2998
  GI50: > 100 µM (inactive)
HCT-116
  GI50: > 100 µM (inactive)
HCT-15
  GI50: > 100 µM
HL-60
  GI50: > 100 µM (inactive)
HOP-62
  GI50: > 100 µM (inactive)
HOP-92
  GI50: > 100 µM (inactive)
HT-29
  GI50: > 100 µM (inactive)
Hs-578T
  GI50: > 100 µM (inactive)
IGROV-1
  GI50: > 100 µM (inactive)
KM12
  GI50: > 100 µM (inactive)
M14
  GI50: > 100 µM (inactive)
MCF7
  GI50: > 100 µM (inactive)
MDA-MB-231
  GI50: > 100 µM (inactive)
MDA-MB-435
  GI50: > 100 µM (inactive)
MDA-N
  GI50: > 100 µM (inactive)
MOLT-4
  GI50: > 100 µM (inactive)
Malme-3M
  GI50: > 100 µM (inactive)
NCI-H226
  GI50: > 100 µM (inactive)
NCI-H23
  GI50: > 100 µM (inactive)
NCI-H460
  GI50: > 100 µM (inactive)
NCI-H522
  GI50: > 100 µM (inactive)
NCI/ADR-RES
  GI50: > 100 µM (inactive)
OVCAR-3
  GI50: > 100 µM (inactive)
OVCAR-4
  GI50: > 100 µM (inactive)
OVCAR-5
  GI50: > 100 µM (inactive)
OVCAR-8
  GI50: > 100 µM (inactive)
PC-3
  GI50: > 100 µM (inactive)
RPMI-8226
  GI50: > 100 µM (inactive)
RXF 393
  GI50: > 100 µM (inactive)
SF-268
  GI50: > 100 µM (inactive)
SF-295
  GI50: > 100 µM (inactive)
SF-539
  GI50: > 100 µM (inactive)
SK-MEL-28
  GI50: > 100 µM (inactive)
SK-MEL-2
  GI50: > 100 µM (inactive)
SK-MEL-5
  GI50: > 100 µM (inactive)
SK-OV-3
  GI50: > 100 µM (inactive)
SN12C
  GI50: > 100 µM (inactive)
SNB-19
  GI50: > 100 µM (inactive)
SNB-75
  GI50: 61.4 µM (inactive)
SR
  GI50: 19.3 µM (inactive)
SW-620
  GI50: > 100 µM (inactive)
T47D
  GI50: > 100 µM (inactive)
TK-10
  GI50: > 100 µM (inactive)
U-251
  GI50: > 100 µM (inactive)
UACC-257
  GI50: > 100 µM (inactive)
UACC-62
  GI50: > 100 µM (inactive)
UO-31
  GI50: > 100 µM (inactive)

From ChEMBL document CHEMBL1201862, “PubChem BioAssay data set” (2004)
